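The compound was tested at five concentrations on cells cultured in 96-well plates, with a 48-hour exposure period. The concentration for 50% growth inhibition is given as GI50. TGI is the concentration that stops growth completely.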
How the values were obtained:
Assay in all cases: NCI anticancer screen, dose series, 48 h
[1] = tested on: M14 melanoma
[2] = tested on: MALME-3M melanoma
[3] = tested on: ACHN renal
[4] = tested on: HCT-15 colon
[5] = tested on: UACC-62 melanoma
[6] = tested on: OVCAR-5 ovarian
[7] = tested on: HOP-62 NSCLC
[8] = tested on: U251 CNS
[9] = tested on: IGROV1 ovarian
[10] = tested on: CCRF-CEM leukemia
[11] = tested on: SR leukemia
[12] = tested on: MDA-MB-435
[13] = tested on: TK-10 renal
[14] = tested on: A549 NSCLC
[15] = tested on: OVCAR-3 ovarian
[16] = tested on: PC-3 prostate
[17] = tested on: SF-295 CNS
[18] = tested on: HOP-92 NSCLC
[19] = tested on: NCI-H460 lung
[20] = tested on: COLO 205 colon
[21] = tested on: HCT-116 colon
[22] = tested on: KM12 colon
[23] = tested on: T-47D breast
[24] = tested on: SF-268 CNS
[25] = tested on: RPMI-8226 leukemia
[26] = tested on: HS 578T breast
[27] = tested on: SK-MEL-28 melanoma
[28] = tested on: SW-620 colon
[29] = tested on: SN12C renal
[30] = tested on: NCI/ADR-RES ovarian
[31] = tested on: HT29 colon
[32] = tested on: OVCAR-4 ovarian
[33] = tested on: DU-145 prostate
[34] = tested on: SK-MEL-5 melanoma
[35] = tested on: OVCAR-8 ovarian
[36] = tested on: UACC-257 melanoma
[37] = tested on: MDA-MB-231 breast
[38] = tested on: NCI-H23 lung
[39] = tested on: MCF7 breast
[40] = tested on: UO-31 renal
[41] = tested on: NCI-H522 lung
[42] = tested on: SK-OV-3 ovarian
[43] = tested on: SNB-19 CNS
[44] = tested on: RXF 393 renal
[45] = tested on: K-562 leukemia
[46] = tested on: 786-0 renal
[47] = tested on: LOX IMVI melanoma
[48] = tested on: MOLT-4 leukemia
[49] = tested on: CAKI-1 renal
[50] = tested on: SK-MEL-2 melanoma
[51] = tested on: EKVX NSCLC
[52] = tested on: A498 renal
[53] = tested on: BT-549 breast
[54] = tested on: SF-539 CNS
[55] = tested on: NCI-H226 lung
[56] = tested on: HL-60(TB) leukemia
[57] = tested on: SNB-75 CNS
[58] = tested on: HCC-2998 colon

O=C(/C=C/N1CCN(c2cccc(C(F)(F)F)c2)CC1)c1ccc(Cl)cc1Cl
GI50 [1]: 17.2 µM | TGI [1]: 36.1 µM | GI50 [2]: 17.4 µM | TGI [2]: 36.2 µM | GI50 [3]: 23.4 µM | TGI [3]: 46.9 µM | GI50 [4]: 26.8 µM | TGI [4]: 53.9 µM | GI50 [5]: 21.4 µM | TGI [5]: 41.8 µM | GI50 [6]: 30.6 µM | TGI [6]: > 100 µM | GI50 [7]: 19 µM | TGI [7]: 35.4 µM | GI50 [8]: 26.1 µM | TGI [8]: 59.8 µM | GI50 [9]: 30 µM | TGI [9]: 58.2 µM | GI50 [10]: 49.6 µM | TGI [10]: > 100 µM | GI50 [11]: 30.1 µM | TGI [11]: 56 µM | GI50 [12]: 25.6 µM | TGI [12]: 44.6 µM | GI50 [13]: 30.1 µM | TGI [13]: 87.3 µM | GI50 [14]: 39.8 µM | TGI [14]: > 100 µM | GI50 [15]: 2.44 µM | TGI [15]: 19.3 µM | GI50 [16]: 31.7 µM | TGI [16]: > 100 µM | GI50 [17]: 14.7 µM | TGI [17]: 32.4 µM | GI50 [18]: 20.6 µM | TGI [18]: 50.7 µM | GI50 [19]: 30.9 µM | TGI [19]: 97.3 µM | GI50 [20]: 36.2 µM | TGI [20]: > 100 µM | GI50 [21]: 23.6 µM | TGI [21]: 50.2 µM | GI50 [22]: 28.1 µM | TGI [22]: 75.9 µM | GI50 [23]: 82.8 µM | TGI [23]: > 100 µM | GI50 [24]: 28.6 µM | TGI [24]: 88.8 µM | GI50 [25]: 25.9 µM | TGI [25]: 70.8 µM | GI50 [26]: 27.5 µM | TGI [26]: 63.8 µM | GI50 [27]: 21.1 µM | TGI [27]: 43.9 µM | GI50 [28]: 38.8 µM | TGI [28]: > 100 µM | GI50 [29]: 21.3 µM | TGI [29]: 40.6 µM | GI50 [30]: 21.7 µM | TGI [30]: 50.8 µM | GI50 [31]: 38.6 µM | TGI [31]: > 100 µM | GI50 [32]: 25.1 µM | TGI [32]: 53.2 µM | GI50 [33]: 35.1 µM | TGI [33]: > 100 µM | GI50 [34]: 19.2 µM | TGI [34]: 36.9 µM | GI50 [35]: 28.5 µM | TGI [35]: 83.4 µM | GI50 [36]: 26.5 µM | TGI [36]: 61 µM | GI50 [37]: 26.8 µM | TGI [37]: 59.8 µM | GI50 [38]: 23.2 µM | TGI [38]: 75.3 µM | GI50 [39]: 24.7 µM | TGI [39]: 60.7 µM | GI50 [40]: 31.3 µM | TGI [40]: > 100 µM | GI50 [41]: 36.1 µM | TGI [41]: > 100 µM | GI50 [42]: 36.2 µM | TGI [42]: 98.2 µM | GI50 [43]: 47.7 µM | TGI [43]: > 100 µM | GI50 [44]: 30.9 µM | TGI [44]: 73.4 µM | GI50 [45]: 35.8 µM | TGI [45]: > 100 µM | GI50 [46]: 20.8 µM | TGI [46]: 39.8 µM | GI50 [47]: 22.7 µM | TGI [47]: 47.1 µM | GI50 [48]: 28.8 µM | TGI [48]: 70.2 µM | GI50 [49]: 22.7 µM | TGI [49]: 41.3 µM | GI50 [50]: 37.5 µM | TGI [50]: > 100 µM | GI50 [51]: 27.9 µM | TGI [51]: 65.4 µM | GI50 [52]: 21.6 µM | TGI [52]: 38.8 µM | GI50 [53]: 20.5 µM | TGI [53]: 40.3 µM | GI50 [54]: 24.8 µM | TGI [54]: 51.3 µM

Cc1cccc(NC(=O)CC(=O)N2N=C(N3c4ccccc4Sc4ccccc43)CC2c2ccccc2)c1 (stereo not drawn)
TGI [1]: > 100 µM | TGI [3]: > 100 µM | TGI [4]: > 100 µM | TGI [5]: > 100 µM | TGI [6]: > 100 µM | TGI [7]: > 100 µM | TGI [8]: > 100 µM | TGI [9]: > 100 µM | TGI [10]: > 100 µM | TGI [11]: > 100 µM | TGI [12]: > 100 µM | TGI [55]: > 100 µM | TGI [13]: > 100 µM | TGI [14]: > 100 µM | TGI [15]: > 100 µM | TGI [16]: > 100 µM | TGI [17]: > 100 µM | TGI [18]: > 100 µM | TGI [19]: > 100 µM | TGI [20]: > 100 µM | TGI [21]: > 100 µM | TGI [22]: > 100 µM | TGI [23]: > 100 µM | TGI [24]: > 100 µM | TGI [25]: > 100 µM | TGI [56]: > 100 µM | TGI [26]: > 100 µM | TGI [27]: > 100 µM | TGI [28]: > 100 µM | TGI [29]: > 100 µM | TGI [30]: > 100 µM | TGI [31]: > 100 µM | TGI [32]: > 100 µM | TGI [33]: > 100 µM | TGI [34]: > 100 µM | TGI [35]: > 100 µM | TGI [36]: > 100 µM | TGI [37]: > 100 µM | TGI [38]: > 100 µM | TGI [39]: > 100 µM | TGI [40]: > 100 µM | TGI [41]: > 100 µM | TGI [42]: > 100 µM | TGI [43]: > 100 µM | TGI [44]: > 100 µM | TGI [45]: > 100 µM | TGI [46]: > 100 µM | TGI [48]: > 100 µM | TGI [57]: > 100 µM | TGI [50]: > 100 µM | TGI [51]: > 100 µM | TGI [58]: > 100 µM | TGI [52]: > 100 µM | TGI [53]: > 100 µM | TGI [54]: > 100 µM

Reference: PubChem BioAssay (NCI)
